These results are taken from US20240294498A1, “FACTOR XIIA INHIBITORS” (Lunac Therapeutics Ltd, priority 2021, published 2024).

Bounds are passed on as bounds.

Usually Ki stands for the dissociation constant of the complex between target and ligand, obtained from inhibition or displacement.

Holding throughout (format): biochemical
In assay [1] the target is T1, FXIIa (Homo sapiens, UniProt P00748).
T1 construct: FXIIa alpha
T1 sequence (P00748 373-615 limits assumed): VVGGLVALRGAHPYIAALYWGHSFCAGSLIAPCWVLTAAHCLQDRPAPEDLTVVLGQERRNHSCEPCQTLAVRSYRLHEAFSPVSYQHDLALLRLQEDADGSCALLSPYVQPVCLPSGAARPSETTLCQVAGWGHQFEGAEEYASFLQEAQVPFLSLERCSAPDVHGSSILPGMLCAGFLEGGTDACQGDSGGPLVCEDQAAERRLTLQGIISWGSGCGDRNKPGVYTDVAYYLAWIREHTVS
T1 sequence (P00748 20-372 partner limits assumed): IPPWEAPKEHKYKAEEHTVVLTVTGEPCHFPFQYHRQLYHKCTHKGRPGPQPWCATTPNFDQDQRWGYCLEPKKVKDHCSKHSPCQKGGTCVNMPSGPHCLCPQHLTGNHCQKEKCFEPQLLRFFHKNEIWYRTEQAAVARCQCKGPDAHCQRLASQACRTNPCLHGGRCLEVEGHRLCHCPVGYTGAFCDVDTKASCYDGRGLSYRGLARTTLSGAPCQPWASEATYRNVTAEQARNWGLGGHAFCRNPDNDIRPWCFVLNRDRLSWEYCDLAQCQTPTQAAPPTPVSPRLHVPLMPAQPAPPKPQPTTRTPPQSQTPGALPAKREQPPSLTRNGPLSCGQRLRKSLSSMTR
Description: Determination of Factor XIIa inhibition (chromogenic substrate S-2302). To be noted: human FXIIa alpha, Ki category. The gist of the method: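 Compound preincubated with 10 nM FXIIa for 10 min at 37° C in 50 mM Tris, 137 mM NaCl, pH 7.4, 5% DMSO, top concentration 500 μM; S-2302 added at Km. pNA release followed at 405 nm for 3 h; IC50 from initial rates, converted to Ki via Ki = IC50/(1+[S]/Km).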

Assay [2] concerns the target FXa (Homo sapiens, UniProt P00742). Description: Determination of selectivity: FXa inhibition (chromogenic substrate S2765). The settings on record: fold selectivity for FXIIa over FXa (human); category. The gist of the method:
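FXa (5 nM) preincubated with increasing compound (top 500 μM) for 10 mins at 37° C in 50 mM Tris, 137 mM NaCl pH 7.4, 5% DMSO, then S2765 added at its KM. Absorbance at 405 nm followed kinetically for 3 hours; IC50 from initial rates, converted to Ki by Cheng-Prusoff.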

The target in assay [3] is T2, thrombin (Homo sapiens, UniProt P00734).
T2 construct: FXa (5 nM) and thrombin (5 nM)
Nature of the assay: Determination of selectivity: thrombin inhibition (chromogenic substrate GPR). The settings on record: fold selectivity for FXIIa over thrombin (human); category. A digest of the protocol:
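Thrombin (5 nM) preincubated with increasing compound concentrations (top 500 μM, 5% DMSO) 10 min at 37 °C in 50 mM Tris, 137 mM NaCl pH 7.4, then GPR chromogenic substrate at its KM. pNA release read kinetically at 405 nm for 3 h at 37 °C. IC50 from initial rates, converted to Ki via Cheng–Prusoff.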

Chain of FXa (P00742 235-488 limits assumed): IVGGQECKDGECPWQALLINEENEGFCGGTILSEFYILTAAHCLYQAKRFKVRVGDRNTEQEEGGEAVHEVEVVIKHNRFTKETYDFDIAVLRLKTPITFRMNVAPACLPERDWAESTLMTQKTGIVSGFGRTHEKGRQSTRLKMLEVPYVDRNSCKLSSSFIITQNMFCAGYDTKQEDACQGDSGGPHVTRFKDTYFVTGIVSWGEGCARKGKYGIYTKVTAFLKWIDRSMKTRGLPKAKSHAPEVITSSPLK
Chain of FXa (P00742 41-179 partner limits assumed): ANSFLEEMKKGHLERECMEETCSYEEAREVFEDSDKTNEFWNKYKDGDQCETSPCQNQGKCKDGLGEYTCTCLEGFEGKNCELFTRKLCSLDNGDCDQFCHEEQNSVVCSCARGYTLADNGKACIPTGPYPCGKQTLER

Turning to `Cc1ccc(C[C@@H]2C[C@@H](C(=O)NCC3CCc4c(cnn4C)C3)N(C(=O)[C@@H]3NCCC[C@@H]3C(=O)N3CCCC3)C2)cc1` (stereo partly drawn) [Example M05874, (2S,4R)-N-((1-methyl-4,5,6,7-tetrahydro-1H-indazol-5-yl)methyl)-4-(4-methylbenzyl)-1-((2R,3S)-3-(pyrrolidine-1-carbonyl)piperidine-2-carbonyl)pyrrolidine-2-carboxamide], the Ki in assay [1] was in the range of 200 to 800 nM. Besides, the “FXa (human)/FXIIa alpha (human)” value in assay [2] was “∘∘∘”. In addition, the “Thrombin (human)/FXIIa alpha (human)” value in assay [3] is recorded as “+++ (fold selectivity values greater than 100)”.
The corresponding values for `COc1ccc(C[C@@H]2C[C@@H](C(=O)NCc3ccc4c(cnn4C)c3)N(C(=O)[C@@H]3NCCC[C@@H]3C(=O)N3CCCC3)C2)cn1` [Example M05875, (2S,4R)-4-((6-methoxypyridin-3-yl)methyl)-N-((1-methyl-1H-indazol-5-yl)methyl)-1-((2R,3S)-3-(pyrrolidine-1-carbonyl)piperidine-2-carbonyl)pyrrolidine-2-carboxamide] are 200 to 800 nM, “∘∘∘” and “+++ (fold selectivity values greater than 100)”.
For `Cn1nnc2cc(CNC(=O)[C@@H]3C[C@@H](Cc4cccc5ccccc45)CN3C(=O)[C@@H]3NCCC[C@@H]3C(=O)N3CCCC3)ccc21` [Example M05877, (2S,4R)-N-((1-methyl-1H-benzo[d][1,2,3]triazol-5-yl)methyl)-4-(naphthalen-1-ylmethyl)-1-((2R,3S)-3-(pyrrolidine-1-carbonyl)piperidine-2-carbonyl)pyrrolidine-2-carboxamide], in that order: under 200 nM, “∘∘∘” and “+++ (fold selectivity values greater than 100)”.
As to `Cc1ccc(C[C@@H]2C[C@@H](C(=O)NCc3ccc4c(cnn4C)c3)N(C(=O)[C@@H]3NCCC[C@@H]3C(=O)N3CC(F)C3)C2)cc1` [Example M05878, (2S,4R)-1-((2R,3S)-3-(3-fluoroazetidine-1-carbonyl)piperidine-2-carbonyl)-N-((1-methyl-1H-indazol-5-yl)methyl)-4-(4-methylbenzyl)pyrrolidine-2-carboxamide], the Ki in assay [1] is under 200 nM. Further, the “FXa (human)/FXIIa alpha (human)” value in assay [2] is reported as “∘∘∘”. The “Thrombin (human)/FXIIa alpha (human)” value in assay [3] is reported as “+++ (fold selectivity values greater than 100)”.
The corresponding values for `Cn1nnc2cc(CNC(=O)[C@@H]3C[C@@H](Cc4ccc5ccccc5c4)CN3C(=O)[C@@H]3NCCC[C@@H]3C(=O)N3CCCC3)ccc21` [Example M05881, (2S,4R)-N-((1-methyl-1H-benzo[d][1,2,3]triazol-5-yl)methyl)-4-(naphthalen-2-ylmethyl)-1-((2R,3S)-3-(pyrrolidine-1-carbonyl)piperidine-2-carbonyl)pyrrolidine-2-carboxamide] are under 200 nM, “∘∘∘” and “+++ (fold selectivity values greater than 100)”.
Turning to `Cc1nnc2cc(CNC(=O)[C@@H]3C[C@@H](Cc4ccc(C(F)(F)F)cc4)CN3C(=O)[C@@H]3NCCC[C@@H]3C(=O)N3CCCC3)ccn12` [Example M05882, (2S,4R)-N-((3-methyl-[1,2,4]triazolo[4,3-a]pyridin-7-yl)methyl)-1-((2R,3S)-3-(pyrrolidine-1-carbonyl)piperidine-2-carbonyl)-4-(4-(trifluoromethyl)benzyl)pyrrolidine-2-carboxamide], the inhibition constant (Ki) in assay [1] fell in the range of 800 to 5000 nM. Also, the “FXa (human)/FXIIa alpha (human)” value in assay [2] was “∘∘∘”. Further, in assay [3], the “Thrombin (human)/FXIIa alpha (human)” value was “+++ (fold selectivity values greater than 100)”.
`Cc1ccc(C[C@@H]2C[C@@H](C(=O)NCc3cnc4[nH]cc(Cl)c4c3)N(C(=O)[C@@H]3NCCC[C@@H]3C(=O)N3CCCC3)C2)cc1` [Example M05899, (2S,4R)-N-((3-chloro-1H-pyrrolo[2,3-b]pyridin-5-yl)methyl)-4-(4-methylbenzyl)-1-((2R,3S)-3-(pyrrolidine-1-carbonyl)piperidine-2-carbonyl)pyrrolidine-2-carboxamide] displayed an inhibition constant (Ki) in assay [1] of under 200 nM. Moreover, the “FXa (human)/FXIIa alpha (human)” value in assay [2] is “∘∘”. Besides, the “Thrombin (human)/FXIIa alpha (human)” value in assay [3] is “+ (fold selectivity values less than 10 (e.g. a fold selectivity value of less than 10 and greater than 1))”.
In assay [1], `Cc1ccc(C[C@@H]2C[C@@H](C(=O)NCC3CCn4c(C)nnc4C3)N(C(=O)[C@@H]3NCCC[C@@H]3C(=O)N3CCCC3)C2)cc1` (stereo partly drawn) [Example M05913, (2S,4R)-N-[(3-mthyl-5,6,7,8-tetrahydro-[1,2,4]triazolo[4,3-a]pyidin-7-yl)methyl]-4-(p-tolylmethyl)-1-[(2R,3S)-3-(pyrrolidine-1-carbonyl)piperidine-2-carbonyl]pyrrolidine-2-carboxamide] came in with a Ki of 200 to 800 nM. For the same compound, the “FXa (human)/FXIIa alpha (human)” value in assay [2] was “∘∘∘”. In assay [3], the “Thrombin (human)/FXIIa alpha (human)” value is recorded as “+++ (fold selectivity values greater than 100)”.
For `Cn1nnc2cc(CNC(=O)[C@@H]3C[C@@H](Cc4ccc(C5CC5)cc4)CN3C(=O)[C@@H]3NCCC[C@@H]3C(=O)N3CCCC3)ccc21` [Example M05934, (2S,4R)-4-(4-cyclopropylbenzyl)-N-((1-methyl-1H-benzo[d][1,2,3]triazol-5-yl)methyl)-1-((2R,3S)-3-(pyrrolidine-1-carbonyl)piperidine-2-carbonyl)pyrrolidine-2-carboxamide], in that order: under 200 nM, “∘∘∘” and “+++ (fold selectivity values greater than 100)”.
In assay [1], `CCCc1ccc(C[C@@H]2C[C@@H](C(=O)NCc3ccc4c(c3)nnn4C)N(C(=O)[C@@H]3NCCC[C@@H]3C(=O)N3CCCC3)C2)cc1` [Example M05935] yielded an inhibitory constant (Ki) of 200 to 800 nM. Besides, in assay [2], the “FXa (human)/FXIIa alpha (human)” value is “∘∘∘”. In assay [3], the “Thrombin (human)/FXIIa alpha (human)” value was “+++ (fold selectivity values greater than 100)”.
Consider `COc1ccc(CNC(=O)[C@@H]2C[C@@H](Cc3ccc(C)cc3)CN2C(=O)[C@@H]2NCCC[C@@H]2C(=O)N2CCCC2)cc1` [Example M05965, (2S,4R)-N-[(4-methoxyphenyl)methyl]-4-(p-tolylmethyl)-1-[(2R,3S)-3-(pyrrolidine-1-carbonyl)piperidine-2-carbonyl]pyrrolidine-2-carboxamide], for which the Ki in assay [1] is at least 5000 nM. Besides, the “FXa (human)/FXIIa alpha (human)” value in assay [2] is “∘∘”. Moreover, the “Thrombin (human)/FXIIa alpha (human)” value in assay [3] is recorded as “++ (a fold selectivity value of 10 to 100)”.
With `Cn1nnc2cc(CNC(=O)[C@@H]3C[C@@H](CC4=CCC5(CC4)CC5)CN3C(=O)[C@@H]3NCCC[C@@H]3C(=O)N3CCCC3)ccc21` [Example M05991], in assay [1], the Ki was under 200 nM. Besides, the “FXa (human)/FXIIa alpha (human)” value in assay [2] is on record as “∘∘∘”. The “Thrombin (human)/FXIIa alpha (human)” value in assay [3] is “+++ (fold selectivity values greater than 100)”.
For `Cn1nnc2cc(CNC(=O)[C@@H]3C/C(=C/C4=CCC5(CC4)CC5)CN3C(=O)[C@@H]3NCCC[C@@H]3C(=O)N3CCCC3)ccc21` [Example M05992, (S,Z)-N-((1-methyl-1H-benzo[d][1,2,3]triazol-5-yl)methyl)-1-((2R,3S)-3-(pyrrolidine-1-carbonyl)piperidine-2-carbonyl)-4-(spiro[2.5]oct-5-en-6-ylmethylene)pyrrolidine-2-carboxamide], in that order: 200 to 800 nM, “∘∘∘” and “+++ (fold selectivity values greater than 100)”.
Compound `Cn1ncc2cc(CNC(=O)[C@@H]3C[C@@H](Cc4ccc(C5CC5)nn4)CN3C(=O)[C@@H]3NCCC[C@@H]3C(=O)N3CCCC3)ccc21` [Example M05997, (2S,4S)-4-[(6-cyclopropylpyridazin-3-yl)methyl]-N-[(1-methylindazol-5-yl)methyl]-1-[(2R,3S)-3-(pyrrolidine-1-carbonyl)piperidine-2-carbonyl]pyrrolidine-2-carboxamide] registered a Ki in assay [1] of 200 to 800 nM. For the same compound, in assay [2], the “FXa (human)/FXIIa alpha (human)” value is listed as “∘∘∘”. In addition, the “Thrombin (human)/FXIIa alpha (human)” value in assay [3] is listed as “+++ (fold selectivity values greater than 100)”.
